Results as given in US12139473B2, “Substituted-N-heteroaryl compounds and uses thereof” (Bionomics Limited, priority 2019, dated 2024).

Biological target: T1, hKv3.1 (Homo sapiens, UniProt P48547)
T1 construct: expressed in transfected cells
T1 sequence (P48547 1-511): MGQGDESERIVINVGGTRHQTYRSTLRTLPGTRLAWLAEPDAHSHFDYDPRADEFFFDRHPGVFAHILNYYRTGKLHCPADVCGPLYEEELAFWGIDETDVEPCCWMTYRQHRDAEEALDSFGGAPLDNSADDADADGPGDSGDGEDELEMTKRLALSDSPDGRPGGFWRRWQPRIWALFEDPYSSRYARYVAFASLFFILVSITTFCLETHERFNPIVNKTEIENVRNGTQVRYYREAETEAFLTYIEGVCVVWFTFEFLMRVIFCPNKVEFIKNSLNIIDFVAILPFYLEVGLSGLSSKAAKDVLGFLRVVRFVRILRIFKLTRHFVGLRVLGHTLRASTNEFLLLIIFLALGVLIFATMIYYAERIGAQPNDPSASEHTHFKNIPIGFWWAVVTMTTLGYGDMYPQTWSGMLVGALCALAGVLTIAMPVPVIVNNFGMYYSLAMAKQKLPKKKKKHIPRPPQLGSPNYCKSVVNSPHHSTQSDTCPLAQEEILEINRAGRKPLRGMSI
Assay: Automated patch clamp electrophysiology (Patchliner), CHO/Kv3.1 cells
Type: cell-based
Details: 10 μM compound, hKv3.1 in CHO-K1, whole-cell; for Kv3.1 Activity at 10 μM Potentiation (%): peak current at voltage step of −10 mV vs vehicle (0.33% DMSO); for Kv3.1 Activity at 10 μM Voltage Shift (mV): voltage shift of the IV curve at V1/2
Description: hKv3.1, hKv3.2, hKv3.3, and hKv3.4 were stably expressed in CHO-K1 (Chinese hamster ovary) cells and kept under constant antibiotic selection. For in vitro assays, cells were maintained in appropriate growth medium at 37° C. and 5% CO2 in a humidified incubator.
hKv3.X expressing cells were plated in T-25 flasks for 3-4 days at 37° C. (no selection antibiotic) prior to use and grown to 80% confluence. Cells were washed twice with PBS (calcium and magnesium free) and detached with a 5-minute treatment at 37° C. with 2-3 mls of Accutase®. Cells were collected, and flask was washed in CHO-SFM II media (Life Technologies Gibco), centrifuged for 2 minutes at ˜110×g and resuspended to obtain a single cell suspension of ˜2-3×10^6 cells/ml.
The intracellular solution contained the following (in mM): KCl 50, NaCl 10, KF 60, EGTA 20, HEPES 10, adjusted to pH 7.2 with KOH and an osmolarity of 285 mOsmol. Seal enhancer was purchased from Nanion (80 mM NaCl, 3 mM KCl, 10 mM MgCl2, 35 mM CaCl2), 10 mM HEPES, pH7.4, 298 mOsmol. The external solution contained (in mM): NaCl 140, KCl 4, CaCl2) 2, MgCl2 1, HEPES 10, Glucose 5, adjusted to pH7.4 and an osmolarity of 298 mOsmol.
All compounds were initially tested at 10 uM at a final DMSO concentration of 0.33%. Compounds were dissolved in dimethylsulfoxide (DMSO) at a stock concentration of 30 mM. The compound was further diluted 1:10 to give a stock concentration of 3 mM in DMSO. The final assay solution was diluted 1:300 in External solution to give a final concentration of 10 uM. For the DMSO Control Buffer 30 uL of DMSO was added to 10 mL buffer.
All electrophysiological recordings were performed at ambient temperature (21-23° C.) using automated patch clamp (Patchliner, Nanion Technologies GmbH) in the whole-cell configuration.
Cell membrane potentials were held at −80 mV, and currents were evoked by voltage steps (1000 ms duration) from −60 to +60 mV in 10 mV increments. This was performed first with vehicle (0.33% DMSO) and then with 10 uM compound, after a 3-minute incubation period. Data was taken from 4 cells per assay.
The recordings were analysed and selected using peak current amplitude (>100 pA at the −10 mV voltage step) in the absence of compound to eliminate unsuitable cells from analysis. Peak current amplitude was measured and recorded for each voltage step and data was normalised to the maximum current at +60 mV. The normalised Kv3.x currents following addition of the compound were then compared with the currents recorded prior to compound addition (vehicle control). Positive modulation was determined as % potentiation at the voltage step of −10 mV=[current (cmpd)/current (veh)]*100−100. % potentiation≥50% was considered acceptable. In addition, voltage shift of the IV curve at V1/2 was measured. V1/2 of ≥−5 mV was also considered acceptable. IV curves were plotted in GraphPad Prism (software version 6.0) and fitted with a Boltzmann equation, where V1/2 is the voltage at half-maximal activation.

Structure (SMILES) | Kv3.1 Activity at 10 μM Potentiation (%) | Kv3.1 Activity at 10 μM Voltage Shift (mV)
CC[C@@]1(C)NC(=O)N(c2cc(Oc3ccc(C)c(OC)c3)ncn2)C1=O [Example 2, (5R)-5-ethyl-3-[6-(3-methoxy-4-methyl-phenoxy)pyrimidin-4-yl]-5-methyl-imidazolidine-2,4-dione] | 16 | −1.9 mV
CC[C@]1(C)NC(=O)N(c2cc(Oc3ccc(C)c(OC)c3)ncn2)C1=O [Example 3, (5S)-5-ethyl-3-[6-(3-methoxy-4-methyl-phenoxy)pyrimidin-4-yl]-5-methyl-imidazolidine-2,4-dione] | 34 | −2.1 mV
CCC1(CC)NC(=O)N(c2cc(Oc3ccc(C)c(OC)c3)ncn2)C1=O [Example 4, 3-[6-(3-methoxy-4-methyl-phenoxy)pyrimidin-4-yl]-5,5-diethyl-imidazolidine-2,4-dione] | 25 | −0.9 mV
COc1cc(Oc2cc(N3C(=O)NC4(CCC4)C3=O)ncn2)ccc1C [Example 5, 7-[6-(3-methoxy-4-methyl-phenoxy)pyrimidin-4-yl]-5,7-diazaspiro[3.4]octane-6,8-dione] | 35 | −3.2 mV
COc1cc(Oc2cc(N3C(=O)N[C@](C)(C(C)C)C3=O)ncn2)ccc1C [Example 8, (5R)-5-isopropyl-3-[6-(3-methoxy-4-methyl-phenoxy)pyrimidin-4-yl]-5-methyl-imidazolidine-2,4-dione] | 48 | −3.1 mV
COc1ccccc1Oc1cc(N2C(=O)NC(C)(C)C2=O)ncn1 [Example 9, 3-[6-(2-methoxyphenoxy)pyrimidin-4-yl]-5,5-dimethyl-imidazolidine-2,4-dione] | 22 | −2.2 mV
COc1ccc(Oc2cc(N3C(=O)NC(C)(C)C3=O)ncn2)cc1 [Example 11, 3-[6-(4-methoxyphenoxy)pyrimidin-4-yl]-5,5-dimethyl-imidazolidine-2,4-dione] | 8 | −1.3 mV
COc1ccc(C)c(Oc2cc(N3C(=O)NC(C)(C)C3=O)ncn2)c1 [Example 18, 3-[6-(2-methyl-5-methoxy-phenoxy)pyrimidin-4-yl]-5,5-dimethyl-imidazolidine-2,4-dione] | 53 | −2.7 mV
COc1c(C)cccc1Oc1cc(N2C(=O)NC(C)(C)C2=O)ncn1 [Example 19, 3-[6-(2-methoxy-3-methyl-phenoxy)pyrimidin-4-yl]-5,5-dimethyl-imidazolidine-2,4-dione] | 15 | −1.7 mV
COc1cncc(Oc2cc(N3C(=O)NC(C)(C)C3=O)ncn2)c1 [Example 25, 5,5-dimethyl-3-[6-[(5-methoxy-3-pyridyl)oxy]pyrimidin-4-yl]imidazolidine-2,4-dione] | 6 | −0.1 mV
CC1(C)NC(=O)N(c2cc(Oc3ccc4c(c3)CCC4)ncn2)C1=O [Example 31, 3-(6-indan-5-yloxypyrimidin-4-yl)-5,5-dimethyl-imidazolidine-2,4-dione] | 65 | −3.3 mV

The remaining lines, values ahead:

Kv3.1 Activity at 10 μM Potentiation (%) | Kv3.1 Activity at 10 μM Voltage Shift (mV) | Structure (SMILES)
3 | +0.4 mV | COc1cccc(Oc2cc(N3C(=O)NC(C)(C)C3=O)ncn2)c1 [Example 10, 3-[6-(3-methoxyphenoxy)pyrimidin-4-yl]-5,5-dimethyl-imidazolidine-2,4-dione]
13 | −0.3 mV | COc1ccc(Oc2cc(N3C(=O)NC(C)(C)C3=O)ncn2)cc1F [Example 12, 3-[6-(3-fluoro-4-methoxy-phenoxy)pyrimidin-4-yl]-5,5-dimethyl-imidazolidine-2,4-dione]
7 | −0.2 mV | COc1cc(C)cc(Oc2cc(N3C(=O)NC(C)(C)C3=O)ncn2)c1 [Example 17, 3-[6-(3-methyl-5-methoxy-phenoxy)pyrimidin-4-yl]-5,5-dimethyl-imidazolidine-2,4-dione]
37 | −3.3 mV | COc1ccc(Oc2cc(N3C(=O)NC(C)(C)C3=O)ncn2)cc1C [Example 20, 3-[6-(3-methyl-4-methoxy-phenoxy)pyrimidin-4-yl]-5,5-dimethyl-imidazolidine-2,4-dione]
29 | −1.4 mV | COc1cc(C)ccc1Oc1cc(N2C(=O)NC(C)(C)C2=O)ncn1 [Example 21, 3-[6-(2-methoxy-4-methyl-phenoxy)pyrimidin-4-yl]-5,5-dimethyl-imidazolidine-2,4-dione]
31 | −2.3 mV | Cc1ccc(Oc2cc(N3C(=O)NC(C)(C)C3=O)ncn2)cc1C#N [Example 22, 5-[6-(4,4-dimethyl-2,5-dioxo-imidazolidin-1-yl)pyrimidin-4-yl]oxy-2-methyl-benzonitrile]
28 | −0.9 mV | CC1(C)NC(=O)N(c2cc(Oc3cccnc3)ncn2)C1=O [Example 23, 5,5-dimethyl-3-[6-(3-pyridyloxy)pyrimidin-4-yl]imidazolidine-2,4-dione]
33 | −4.0 mV | Cc1ccc(Oc2cc(N3C(=O)NC(C)(C)C3=O)ncn2)cn1 [Example 24, 5,5-dimethyl-3-[6-[(6-methyl-3-pyridyl)oxy]pyrimidin-4-yl]imidazolidine-2,4-dione]
17 | −2.2 mV | Cc1ccccc1Oc1cc(N2C(=O)NC(C)(C)C2=O)ncn1 [Example 26, 3-[6-(2-methylphenoxy)pyrimidin-4-yl]-5,5-dimethyl-imidazolidine-2,4-dione]
−17 | +2.11 mV | Cc1cccc(Oc2cc(N3C(=O)NC(C)(C)C3=O)ncn2)c1 [Example 27, 3-[6-(3-methylphenoxy)pyrimidin-4-yl]-5,5-dimethyl-imidazolidine-2,4-dione]
3 | −1.1 mV | Cc1ccc(Oc2cc(N3C(=O)NC(C)(C)C3=O)ncn2)cc1 [Example 28, 3-[6-(4-methylphenoxy)pyrimidin-4-yl]-5,5-dimethyl-imidazolidine-2,4-dione]
10 | −1.6 mV | Cc1ccc(Oc2cc(N3C(=O)NC(C)(C)C3=O)ncn2)cc1C [Example 29, 3-[6-(3,4-dimethylphenoxy)pyrimidin-4-yl]-5,5-dimethyl-imidazolidine-2,4-dione]
63 | −2.1 mV | CCc1cc(Oc2cc(N3C(=O)NC(C)(C)C3=O)ncn2)ccc1C [Example 30, 3-[6-(3-ethyl-4-methylphenoxy)pyrimidin-4-yl]-5,5-dimethyl-imidazolidine-2,4-dione]
